How the values were obtained:
[1] = system: Aurora; test: Aurora inhibitory activity using Western blotting method (phosphorylation of histone H3 Ser10); assay type: cell-based, human; settings: 10 μmol/L, 30 minutes, HCT116 cells accumulated in M phase with Nocodazole
Text: It is known that Aurora phosphorylates Ser10 of histone H3 in the G2/M phase during the cell cycle [Molecular and Cellular Biology, Vol. 22, p. 874 (2002)]. Consequently, the inhibition of phosphorylation of histone H3 Ser10 in cells was detected by a Western blotting method using human colon cancer cell line HCT116 cells accumulated in the M phase. McCoy's 5A culture medium (GIBCO, Catalogue No. 16600-082) containing 10% bovine fetus serum (GIBCO, Catalogue No. 10099-141) was used for the cultivation of the cells. The HCT116 cells were inoculated and then treated with Nocodazole (Sigma Corporation, Catalogue No. M-1404) so that the cell cycle was accumulated to the M phase. A test compound (final concentration: 10 μmol/L) was added thereto, and the cells were incubated at 37° C. for 30 minutes. The cells were then recovered and washed with a phosphate buffered saline (PBS) once. The cells were suspended in a cell-solubilizing solution (50 mmol/L 2-[4-(2-hydroxyethyl)-1-piperazinyl]ethanesulfonic acid (HEPES) (pH 7.4), 150 mmol/L NaCl, 1 mmol/L ethylenediamine-N,N,N′,N′-tetraacetic acid disodium salt dihydrate (EDTA), 2.5 mmol/L ethylene glycol bis(2-aminoethylether)-N,N,N′,N′-tetraacetic acid (EGTA), 0.1% Tween-20 (Bio-Rad Laboratories Inc., Catalogue No. 170-6531), 10% β-glycerophosphate, 1 mmol/L NaF, 0.1 mmol/L Na3VO4, 1 mmol/L Pefabloc SC (Roche Diagnostics K.K., Catalogue No. 1 429 868), and Complete EDTA-free (Roche Diagnostics K.K., Catalogue No. 1 873 580)}, and the suspension was frozen and thawed. Subsequently, the supernatant obtained by centrifugal separation was used as a cell extraction solution. SDS-PAGE was performed using a 12.5% polyacrylamide gel under the condition that the amount of protein per sample was 30 μg in accordance with the method used by Laemmli et al. The protein was transferred onto a PVDF membrane (Millipore Corporation, Catalogue No. IPVH304F0) by a semi-dry method. The membrane was allowed to react with anti-phosphorylated histone H3 Ser10 antibody (Upstate Inc., Catalogue No. 06-570) used as a primary antibody, and an HRP-labeled anti-rabbit IgG antibody (Amersham biosciences, Catalogue No. NA934V) used as a secondary antibody. Subsequently, […] was detected using a SuperSignal West Pico chemiluminescence substrate (Pierce, Catalogue No. 34077).

[2] = system: HCT116 cells; test: Evaluation of Aurora inhibitory activity by analysis of nuclear morphology (enlarged lobed nuclei); assay type: cell-based, human; settings: concentration in the range of 0.1 to 1 μmol/L, 17 hours contact; optimal concentration different in each compound
Procedure: 281 (2003)]. Consequently, enlarged lobed nuclei-inducibility of test compounds for HCT116 cells was evaluated. McCoy's 5A culture medium (GIBCO, Catalogue No. 16600-082) containing 10% bovine fetus serum (GIBCO, Catalogue No. 10099-141) was used for the cultivation of the cells. HCT116 cells were inoculated and, 24 hours later, each test compound was added thereto.

Compound: O=C1NCc2c(Cl)ccc(-c3cc4cc(C(=O)N5CCN(CCO)CC5)ccc4[nH]3)c21 [Compound 23, 4-Chloro-7-{1H-5-[4-(2-hydroxyethyl)piperazin-1-ylcarbonyl]indol-2-yl}isoindolinone]
- melting point: > 295 °C

Compound: CN(C)CCN1CCN(C(=O)c2ccc3[nH]c(-c4ccc(Cl)c5c4C(=O)NC5)cc3c2)CC1 [Compound 112, 4-Chloro-7-{1H-5-[4-(2-dimethylaminoethyl)piperazin-1-ylcarbonyl]indol-2-yl}isoindolinone]
- melting point: 271 to 272 °C

Compound: COc1cc(-c2cc3cc(CN4CCCCC4)ccc3[nH]2)c2c(c1OS(=O)(=O)c1ccsc1)CNC2=O.Cl [Compound 407, 4-(3-Thiophenesulfonyloxy)-5-methoxy-7-[1H-5-(piperidinomethyl)indol-2-yl]isoindolinone hydrochloride]
- suppression of the phosphorylation of histone H3 Ser10 in HCT116 cells [1]: almost completely suppressed
- ability of inducing enlarged lobed nuclei for HCT116 cells [2]: show ability of inducing enlarged lobed nuclei

Compound: Cl.O=C1NCc2c(C#CCO)ccc(-c3cc4cc(CN5CCCCC5)ccc4[nH]3)c21 [Compound 321, 4-(3-Hydroxy-1-propinyl)-7-[1H-5-(piperidinomethyl)indol-2-yl]isoindolinone hydrochloride]
- suppression of the phosphorylation of histone H3 Ser10 in HCT116 cells [1]: almost completely suppressed
- ability of inducing enlarged lobed nuclei for HCT116 cells [2]: show ability of inducing enlarged lobed nuclei

Compound: O=C1NCc2c(Cl)ccc(-c3cc4cc(C(=O)N5CCN(c6ccccn6)CC5)ccc4[nH]3)c21 [Compound 107, 4-Chloro-7-{1H-5-[4-(pyridin-2-yl)piperazin-1-ylcarbonyl]indol-2-yl}isoindolinone]
- melting point: > 295 °C

Compound: COc1cc(-c2cc3cc(CN(C)C)ccc3[nH]2)c2c(c1O)CNC2=O.Cl [Compound 357, 4-Hydroxy-5-methoxy-7-[1H-5-(dimethylaminomethyl)indol-2-yl]isoindolinone hydrochloride]
- suppression of the phosphorylation of histone H3 Ser10 in HCT116 cells [1]: almost completely suppressed
- ability of inducing enlarged lobed nuclei for HCT116 cells [2]: show ability of inducing enlarged lobed nuclei

Compound: COc1cc(-c2cc3cc(CN4CCCC4)ccc3[nH]2)c2c(c1OS(=O)(=O)N(C)C)CNC2=O.Cl [Compound 417, 4-(Dimethylsulfamoyloxy)-5-methoxy-7-[1H-5-(pyrrolidin-1-ylmethyl)indol-2-yl]isoindolinone hydrochloride]
- suppression of the phosphorylation of histone H3 Ser10 in HCT116 cells [1]: almost completely suppressed
- ability of inducing enlarged lobed nuclei for HCT116 cells [2]: show ability of inducing enlarged lobed nuclei

Compound: COCCCNCc1ccc2[nH]c(-c3cc(OC)c(OS(C)(=O)=O)c4c3C(=O)NC4)cc2c1.Cl [Compound 454, 4-Methanesulfonyloxy-5-methoxy-7-[1H-5-(3-methoxypropylaminomethyl)indol-2-yl]isoindolinone hydrochloride]
- suppression of the phosphorylation of histone H3 Ser10 in HCT116 cells [1]: almost completely suppressed
- ability of inducing enlarged lobed nuclei for HCT116 cells [2]: show ability of inducing enlarged lobed nuclei

Compound: COc1cc(-c2cc3cc(N4CCN(C)CC4)ccc3[nH]2)c2c(c1OS(C)(=O)=O)CNC2=O.Cl.Cl [Compound 457, 4-Methanesulfonyloxy-5-methoxy-7-[1H-5-(4-methylpyperazin-1-yl)indol-2-yl]isoindolinone dihydrochloride]
- suppression of the phosphorylation of histone H3 Ser10 in HCT116 cells [1]: almost completely suppressed
- ability of inducing enlarged lobed nuclei for HCT116 cells [2]: show ability of inducing enlarged lobed nuclei

Compound: Cl.NS(=O)(=O)Oc1ccc(-c2cc3cc(CN4CCCCC4)ccc3[nH]2)c2c1CNC2=O [Compound 231, 4-Sulfamoyloxy-7-[1H-5-(piperidinomethyl)indol-2-yl]isoindolinone hydrochloride]
- suppression of the phosphorylation of histone H3 Ser10 in HCT116 cells [1]: almost completely suppressed
- ability of inducing enlarged lobed nuclei for HCT116 cells [2]: show ability of inducing enlarged lobed nuclei

Compound: Cl.O=C1NCc2c(Cl)ccc(-c3cc4cc(CN5CCCCC5)ccc4[nH]3)c21 [Compound 29, 4-Chloro-7-[1H-5-(piperidinomethyl)indol-2-yl]isoindolinone hydrochloride]
- suppression of the phosphorylation of histone H3 Ser10 in HCT116 cells [1]: almost completely suppressed
- ability of inducing enlarged lobed nuclei for HCT116 cells [2]: show ability of inducing enlarged lobed nuclei

Compound: Cl.O=C1NCc2c(-c3ccco3)ccc(-c3cc4cc(CN5CCCCC5)ccc4[nH]3)c21 [Compound 143, 4-(Furan-2-yl)-7-[1H-5-(piperidinomethyl)indol-2-yl]isoindolinone hydrochloride]
- suppression of the phosphorylation of histone H3 Ser10 in HCT116 cells [1]: almost completely suppressed
- ability of inducing enlarged lobed nuclei for HCT116 cells [2]: show ability of inducing enlarged lobed nuclei

Compound: O=C(NCc1ccccc1)c1ccc2[nH]c(-c3ccc(Cl)c4c3C(=O)NC4)cc2c1 [Compound 57, 4-Chloro-7-[1H-5-(benzylaminocarbonyl)indol-2-yl]isoindolinone]
- melting point: 246 °C

Compound: CCN(CC)Cc1ccc2[nH]c(-c3cc(OC)c(OS(C)(=O)=O)c4c3C(=O)NC4)cc2c1.Cl [Compound 376, 4-Methanesulfonyloxy-5-methoxy-7-[1H-5-(diethylaminomethyl)indol-2-yl]isoindolinone hydrochloride]
- suppression of the phosphorylation of histone H3 Ser10 in HCT116 cells [1]: almost completely suppressed
- ability of inducing enlarged lobed nuclei for HCT116 cells [2]: show ability of inducing enlarged lobed nuclei

Compound: CNCc1ccc2[nH]c(-c3cc(OC)c(OS(C)(=O)=O)c4c3C(=O)NC4)cc2c1.Cl [Compound 375, 4-Methanesulfonyloxy-5-methoxy-7-[1H-5-(methylaminomethyl)indol-2-yl]isoindolinone hydrochloride]
- suppression of the phosphorylation of histone H3 Ser10 in HCT116 cells [1]: almost completely suppressed
- ability of inducing enlarged lobed nuclei for HCT116 cells [2]: show ability of inducing enlarged lobed nuclei

Compound: Cl.O=C1NCc2c(Cl)ccc(-c3cc4cc(C(=O)N5CCNCC5)ccc4[nH]3)c21 [Compound 22]
- suppression of the phosphorylation of histone H3 Ser10 in HCT116 cells [1]: almost completely suppressed
- ability of inducing enlarged lobed nuclei for HCT116 cells [2]: show ability of inducing enlarged lobed nuclei

Compound: COc1cc(-c2cc3cc(CN(C)C)ccc3[nH]2)c2c(c1OS(=O)(=O)c1ccccn1)CNC2=O.Cl [Compound 412, 4-(2-Pyridinesulfonyloxy)-5-methoxy-7-[1H-5-(dimethylaminomethyl)indol-2-yl]isoindolinone hydrochloride]
- suppression of the phosphorylation of histone H3 Ser10 in HCT116 cells [1]: almost completely suppressed
- ability of inducing enlarged lobed nuclei for HCT116 cells [2]: show ability of inducing enlarged lobed nuclei

Compound: Cl.Cl.O=C1NCc2c(Cl)ccc(-c3cc4cc(CN5CCN(CCO)CC5)ccc4[nH]3)c21 [Compound 24, 4-Chloro-7-{1H-5-[4-(2-hydroxyethyl)piperazin-1-ylmethyl]indol-2-yl}isoindolinone dihydrochloride]
- suppression of the phosphorylation of histone H3 Ser10 in HCT116 cells [1]: almost completely suppressed
- ability of inducing enlarged lobed nuclei for HCT116 cells [2]: show ability of inducing enlarged lobed nuclei

Compound: Cl.O=C1NCc2c(Cl)ccc(-c3cc4cc(CNCCO)ccc4[nH]3)c21 [Compound 32, 4-Chloro-7-{1H-5-[(2-hydroxyethyl)aminomethyl]indol-2-yl}isoindolinone hydrochloride]
- suppression of the phosphorylation of histone H3 Ser10 in HCT116 cells [1]: almost completely suppressed
- ability of inducing enlarged lobed nuclei for HCT116 cells [2]: show ability of inducing enlarged lobed nuclei

Compound: Cl.O=C1NCc2c(O)ccc(-c3cc4cc(CN5CCCCC5)ccc4[nH]3)c21 [Compound 139, 4-Hydroxy-7-[1H-5-(piperidinomethyl)indol-2-yl]isoindolinone hydrochloride]
- suppression of the phosphorylation of histone H3 Ser10 in HCT116 cells [1]: almost completely suppressed
- ability of inducing enlarged lobed nuclei for HCT116 cells [2]: show ability of inducing enlarged lobed nuclei

Compound: CN(C)Cc1ccc2[nH]c(-c3cc(OCCCO)c(Cl)c4c3C(=O)NC4)cc2c1.Cl [Compound 431, 4-Chloro-5-(3-hydroxypropoxy)-7-[1H-5-(dimethylaminomethyl)indol-2-yl]isoindolinone hydrochloride]
- suppression of the phosphorylation of histone H3 Ser10 in HCT116 cells [1]: almost completely suppressed
- ability of inducing enlarged lobed nuclei for HCT116 cells [2]: show ability of inducing enlarged lobed nuclei
